Data published in ChEMBL document CHEMBL2177086, “Design and synthesis of a stable oxidized phospholipid mimic with specific binding recognition for macrophage scavenger receptors” (J Med Chem, 2012).
Calls of active or inactive are those of the source. The rule behind the calls is not given here.

Columns and labels:
[1] = target: Platelet glycoprotein 4 (Homo sapiens) (UniProt P16671); assay: Displacement of CuOxLDL from CD36 receptor expressed in CHO cells; format: cell-based
[2] = Binding affinity to monoclonal antibody E06 by solid phase chemiluminescent immunoassay
[3] = system: J774; assay: Cytotoxicity against mouse J774 macrophages assessed as effect on protein content up to 72 hrs; format: cell-based; conditions: j774, 72 h
[4] = system: J774; assay: Cytotoxicity against mouse J774 macrophages assessed as effect on cell number up to 72 hrs; format: cell-based; conditions: j774, 72 h
[5] = target: Platelet glycoprotein 4 (Mus musculus) (UniProt Q08857); assay: Displacement of Bt-CuOxLDL from CD36 receptor in mouse J774 cells after 2 hrs by chemiluminescent assay; format: cell-based
Chain of Platelet glycoprotein 4 (Mus musculus) (Q08857 whole entry): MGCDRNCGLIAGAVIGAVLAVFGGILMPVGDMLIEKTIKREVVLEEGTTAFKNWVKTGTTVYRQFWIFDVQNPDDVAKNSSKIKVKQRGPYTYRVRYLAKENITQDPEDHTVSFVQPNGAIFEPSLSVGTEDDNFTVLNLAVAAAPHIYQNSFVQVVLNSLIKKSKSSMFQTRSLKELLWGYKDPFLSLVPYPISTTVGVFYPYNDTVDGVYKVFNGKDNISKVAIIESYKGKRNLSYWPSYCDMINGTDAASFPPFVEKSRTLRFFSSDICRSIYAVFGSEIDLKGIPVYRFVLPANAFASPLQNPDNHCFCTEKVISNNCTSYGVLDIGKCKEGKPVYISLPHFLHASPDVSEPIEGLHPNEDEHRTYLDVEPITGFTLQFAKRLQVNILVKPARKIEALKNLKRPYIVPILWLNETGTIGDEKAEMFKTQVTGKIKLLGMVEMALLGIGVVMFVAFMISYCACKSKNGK

Chain of Platelet glycoprotein 4 (Homo sapiens) (P16671 whole entry): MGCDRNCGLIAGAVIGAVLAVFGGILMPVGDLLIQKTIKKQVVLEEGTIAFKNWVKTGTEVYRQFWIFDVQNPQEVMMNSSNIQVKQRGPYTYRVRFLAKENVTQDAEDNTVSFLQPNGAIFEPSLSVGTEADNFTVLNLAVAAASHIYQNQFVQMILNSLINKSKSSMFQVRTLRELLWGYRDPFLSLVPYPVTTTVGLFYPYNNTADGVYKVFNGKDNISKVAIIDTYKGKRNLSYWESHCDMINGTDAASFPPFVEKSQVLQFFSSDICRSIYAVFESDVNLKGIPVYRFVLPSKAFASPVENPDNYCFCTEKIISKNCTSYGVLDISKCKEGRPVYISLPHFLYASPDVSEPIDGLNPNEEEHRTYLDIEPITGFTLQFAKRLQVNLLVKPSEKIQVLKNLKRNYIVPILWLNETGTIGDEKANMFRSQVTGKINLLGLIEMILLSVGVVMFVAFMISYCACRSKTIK

Row | Activity [1] | Activity [2] | Activity [5] | inhibition [5] | Compound | Activity [3] | Activity [4]
1 | Active | Active | > 99% | – | CCCCCCCCCCCCCCCC(=O)OC[C@H](COP(=O)([O-])OCC[N+](C)(C)C)OC(=O)CCCCN(C)CCCC[C@H](NC(=O)[C@@H](NC(=O)CNC(=O)[C@@H](NC(C)=O)[C@@H](C)O)[C@@H](C)O)C(=O)NCC(=O)NCC(=O)O | Non-toxic | Non-toxic
2 | – | – | – | inactive | H-TGTKGG-OH | – | –
